Assay results published in PubChem BioAssay (NCI).
Where “and” joins values, the source holds several entries; their conditions need not be identical. Equal values may be shown once.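 In this assay, cells in 96-well plates receive the compound at five concentrations for 48 hours. Endpoints are linearly interpolated between the surrounding concentrations. At the GI50, growth is halved. TGI is the concentration that stops growth completely.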

Legend:
Test in all cases: NCI-60 cell line screen, 48 h
SNB-75 CNS = test system: SNB-75 CNS
IGROV1 ovarian = test system: IGROV1 ovarian
SK-MEL-2 melanoma = test system: SK-MEL-2 melanoma
SR leukemia = test system: SR leukemia
OVCAR-5 ovarian = test system: OVCAR-5 ovarian
MOLT-4 leukemia = test system: MOLT-4 leukemia
A549 NSCLC = test system: A549 NSCLC
RPMI-8226 leukemia = test system: RPMI-8226 leukemia
SK-OV-3 ovarian = test system: SK-OV-3 ovarian
M14 melanoma = test system: M14 melanoma

| Compound | GI50 (SNB-75 CNS) | TGI (SNB-75 CNS) | GI50 (IGROV1 ovarian) | TGI (IGROV1 ovarian) | GI50 (SK-MEL-2 melanoma) | TGI (SK-MEL-2 melanoma) | GI50 (SR leukemia) | TGI (SR leukemia) | GI50 (OVCAR-5 ovarian) | TGI (OVCAR-5 ovarian) | GI50 (MOLT-4 leukemia) | TGI (MOLT-4 leukemia) | GI50 (A549 NSCLC) | TGI (A549 NSCLC) | GI50 (RPMI-8226 leukemia) | TGI (RPMI-8226 leukemia) | GI50 (SK-OV-3 ovarian) | TGI (SK-OV-3 ovarian) | GI50 (M14 melanoma) | TGI (M14 melanoma) |
| --- | --- | --- | --- | --- | --- | --- | --- | --- | --- | --- | --- | --- | --- | --- | --- | --- | --- | --- | --- | --- |
| O=C1/C(=C/c2ccccc2O)N=C(c2ccccc2)N1c1cc(C(F)(F)F)ccc1Cl | 18.1 µM | 37.7 µM | 14.3 µM | 64.3 µM | > 100 µM | > 100 µM | 5.51 µM | > 100 µM | > 100 µM | > 100 µM | > 100 µM | > 100 µM | 75.7 µM | > 100 µM | > 100 µM | > 100 µM | 43.7 µM | > 100 µM | 62.5 µM | > 100 µM |
| COC1=C(OC)C(=O)C(CCCCCCCCCCO)=C(C)C1=O | 12.1 µM | 28 µM | 9.74 µM | 29.7 µM | 3.2 µM | 8.1 µM | 3.18 µM | 19 µM | 10.7 µM | 25.5 µM | 4.54 µM | 21.7 µM | 15.3 µM | 34.8 µM | 4 µM | 29.5 µM | 15.7 µM | 29.2 µM | 15 µM | 31 µM |
| Cc1cc2c(c(=O)o1)C1=S(SC(c3ccccc3)=C1)S2 (stereo not drawn) |  | 94.5 µM |  | > 100 µM |  | > 100 µM |  | 38.5 µM |  | > 100 µM |  | > 100 µM |  | > 100 µM |  | > 100 µM |  | 52.6 µM |  | > 100 µM |
| [Cl][Cu][Cl] | > 10 µM | > 10 µM | > 10 µM | > 10 µM | > 10 µM | > 10 µM | > 10 µM | > 10 µM | > 10 µM | > 10 µM | > 10 µM | > 10 µM | > 10 µM | > 10 µM | > 10 µM | > 10 µM | > 10 µM | > 10 µM | > 10 µM | > 10 µM |
| CC(=O)N(O)c1ccc(/C=C/c2ccccc2)cc1 | 0.883 µM | 4.59 µM | 1.14 µM | 7.41 µM | 5.71 µM | 37.9 µM | 0.244 µM | > 100 µM | 2.35 µM | 9.46 µM | 2.27 µM | > 100 µM | 1.26 µM | 15.5 µM | 3.21 µM | > 100 µM | 2.04 µM | 8.77 µM | 3.35 µM | > 100 µM |
| COc1ccc(COc2cc3oc(=O)c4cc(C(C)O)ccc4c3cc2OC)cc1 (stereo not drawn) | 2.08 µM | 11.1 µM | 11.5 µM | > 83.1 µM | 7.69 µM | 30 µM | 49.7 µM | > 100 µM | 41.5 µM | > 100 µM | > 23 µM | > 100 µM | 14 µM | > 100 µM | > 28.8 µM | > 100 µM | 13.2 µM | 45.8 µM | > 22.5 µM | > 100 µM |
| NC(=O)CC(N)c1nn[nH]n1 (stereo not drawn) |  | > 100 µM |  | > 100 µM |  | > 100 µM |  | > 100 µM |  | > 100 µM |  | > 100 µM |  | > 100 µM |  | > 100 µM |  | > 100 µM |  | > 100 µM |
| Nc1nc(C(=O)O)c(N=Nc2ccccc2)c(=O)[nH]1 |  | > 100 µM |  | > 100 µM |  | > 100 µM |  | > 100 µM |  | > 100 µM |  | > 100 µM |  | > 100 µM |  | > 100 µM |  | > 100 µM |  | > 100 µM |
| N#Cc1cccc(Nc2ncc(-c3ccccc3)o2)c1 | 10.8 µM | > 22.6 µM | 11.7 µM | > 25 µM | > 25 µM | > 25 µM | 11.8 µM | > 25 µM | 16.4 µM | > 25 µM | > 25 µM | > 25 µM | 11.7 µM | > 25 µM | > 25 µM | > 25 µM | 8.4 µM | 19.6 µM | > 25 µM | > 25 µM |
| O=C(CC(=O)c1ccccc1)C(=O)Nc1ccc(Cl)cc1 |  | > 100 µM |  | > 100 µM |  | > 100 µM |  | > 100 µM |  | > 100 µM |  | > 100 µM |  | > 100 µM |  | > 100 µM |  | > 100 µM |  | > 100 µM |
| CC1=NNC(=S)NCCCN2CCN(CCCNC(=S)NN=C(C)C=NNC(=S)NCCCN3CCN(CCCNC(=S)NN=C1)CC3)CC2 |  | > 100 µM |  | > 100 µM |  | > 100 µM |  | > 100 µM |  | > 100 µM |  | > 100 µM |  | > 100 µM |  | > 100 µM |  | > 100 µM |  | > 100 µM |
| C[C@@H](NC(=O)c1ccc(F)cc1)c1ccc2c(c1)CCN2C(=O)C1CCOCC1 | 79.2 µM | > 100 µM | > 100 µM | > 100 µM | > 100 µM | > 100 µM | > 100 µM | > 100 µM | > 100 µM | > 100 µM | > 100 µM | > 100 µM | > 100 µM | > 100 µM | > 100 µM | > 100 µM | > 100 µM | > 100 µM | > 100 µM | > 100 µM |
| COc1ccc(C2CC(c3ccc(N(C)C)cc3)=NN2c2ccc(S(N)(=O)=O)cc2)cc1 (stereo not drawn) | 5.42 µM | > 100 µM | 4.31 µM | > 100 µM | 4 µM | 14.3 µM | 3.77 µM | > 100 µM | 6.57 µM | > 100 µM | 3.91 µM | > 100 µM | 3.16 µM | > 100 µM | 3.26 µM | 13.2 µM | 4.38 µM | > 100 µM | 4.42 µM | > 100 µM |
| N#Cc1c(NC(=O)c2ccccc2F)sc2c1CCCC2 | > 21.7 µM | > 25 µM | > 25 µM | > 25 µM | > 25 µM | > 25 µM | > 25 µM | > 25 µM | > 25 µM | > 25 µM | > 25 µM | > 25 µM | > 25 µM | > 25 µM | > 25 µM | > 25 µM | > 25 µM | > 25 µM | > 25 µM | > 25 µM |
| COc1ccc(S(=O)(=O)N2CCNCC2)cc1OC | > 100 µM | > 100 µM | > 100 µM | > 100 µM | > 100 µM | > 100 µM | > 100 µM | > 100 µM | > 100 µM | > 100 µM | > 100 µM | > 100 µM | > 100 µM | > 100 µM | > 100 µM | > 100 µM | > 100 µM | > 100 µM | > 100 µM | > 100 µM |
| Cc1cc(O)c2c3c(ccc2c1)C(=O)c1c(O)cccc1C3=O |  | > 74.7 µM |  | > 20.3 µM |  | > 100 µM |  | 26.5 µM |  | > 100 µM |  | > 39.1 µM |  | > 100 µM |  | > 100 µM |  | > 100 µM |  | > 26.2 µM |
| COc1cc(C(=O)/C=C/c2c(C(F)(F)F)nc3ccccn23)cc(OC)c1OC | 1.76 µM | 3.44 µM | 2.23 µM | 6.02 µM | 2.43 µM | 6.07 µM | 1.98 µM | > 100 µM | 1.98 µM | 4.02 µM | 3.73 µM | > 100 µM | 4.04 µM | > 100 µM | 2.91 µM | > 100 µM | 4.04 µM | 19 µM | 1.82 µM | 4.06 µM |
| COc1c(OC(C)C)cc2cc(O)c(C(=O)NC3Cc4ccc(c(Cl)n4)O[C@@H]4C=C5C#C/C(=C\C#CC6OC56C4OC4CC(C)(O)C(O)C(C)O4)C(OC4CC(O)C(N(C)C)C(C)O4)COC3=O)cc2c1OC (stereo partly drawn) | 4.43 µg/mL | > 36.3 µM and 19.1 µg/mL | > 36.3 µM and 37.5 µg/mL | > 36.3 µM and 37.5 µg/mL | 10 µg/mL | > 36.3 µM and 31.8 µg/mL | 8.27 µM and 0.0174 µg/mL | > 36.3 µM and 0.746 µg/mL | > 36.3 µM and 4.02 µg/mL | > 36.3 µM and 27.5 µg/mL | 0.00979 µg/mL | 14.2 µg/mL | > 36.3 µM and 0.798 µg/mL | > 36.3 µM and 37.5 µg/mL | 0.348 µg/mL | 3.67 µg/mL | 2.75 µg/mL | 37.5 µg/mL | 32.7 µM and 2.8 µg/mL | > 36.3 µM and 21.4 µg/mL |
| COc1cc(-c2ncn(/C=C\c3nnco3)n2)cc(C(F)(F)F)c1 | 0.0863 µM | 4.73 µM | 1.89 µM | > 100 µM | 0.0617 µM | 1.15 µM | 0.021 µM | > 100 µM | 1.78 µM | > 100 µM | 0.0411 µM |  | 0.109 µM | > 68 µM | 0.102 µM | > 89.1 µM | 0.979 µM | > 100 µM | 0.791 µM | 37.2 µM |
| CC(C)N(Cc1ccc(F)cc1)c1ccc(CO)c(Cl)c1 | 9.21 µM | 23.3 µM | 0.0479 µM | 0.266 µM | 1.61 µM | 16.6 µM | 12.8 µM | 32.5 µM | 0.0576 µM | 0.247 µM | 11 µM | 32.6 µM | 1.03 µM | 17.5 µM | 1.46 µM | 20.1 µM | 4.83 µM | 17.9 µM | 13 µM | 28.8 µM |
| COc1ccc(-c2[nH]c3ccccc3c2/C=C(\C#N)S(=O)(=O)c2ccccc2)cc1 | 0.375 µM | > 25.9 µM | 3.44 µM |  | 4.79 µM | > 21.8 µM | 0.344 µM | 4.9 µM | 1.84 µM | > 100 µM | 0.666 µM | 8.39 µM | 0.759 µM | > 35.5 µM | 2.14 µM | > 100 µM | 0.516 µM | > 25.3 µM | 0.383 µM | 14.4 µM |
